Where only a bound is given, the exact number is not on record here.

Results on 64 molecules are retold here after patent US8815875B2 (Merck Sharp & Dohme Corp., priority 2008, dated 2014).

The target of the assay is FABP4 (Homo sapiens, UniProt P15090). Put plainly: TdF (Temperature Dependence Fluorescence) assay, thermal shift, FABP4. It counts as binding. In a few lines:
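Binding measured as ΔTm versus protein alone; binding constants derived by nonlinear fitting with ΔHL set to −7 kcal/mol and ΔCpL to zero.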

FABP4, sequence (P15090 whole entry, species assumed): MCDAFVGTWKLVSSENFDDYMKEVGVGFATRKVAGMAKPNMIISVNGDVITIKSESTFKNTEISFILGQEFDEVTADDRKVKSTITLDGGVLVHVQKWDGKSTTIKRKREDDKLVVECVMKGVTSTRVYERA

`O=C(NCC1CC1)C1(OCc2cc(=O)n3nc(-c4ccccc4)nc3[nH]2)CCCCC1` [48-16]: the “FABP4 TdF Kd” value was “B (0.5 ≦ B < 0.001 μM)”.
On to `O=C(NCCO)C1(OCc2cc(=O)n3nc(-c4ccccc4)nc3[nH]2)CCCCC1` [48-17], for which the “FABP4 TdF Kd” value is given as “B (0.5 ≦ B < 0.001 μM)”.
By Kd is commonly meant the equilibrium constant for the complex coming apart. With `O=C(NC1CC1)C1(OCc2cc(=O)n3nc(-c4ccccc4)nc3[nH]2)CCCCC1` [48-18], the Kd was > 500 nM.
`O=C(N1CCOCC1)C1(OCc2cc(=O)n3nc(-c4ccccc4)nc3[nH]2)CCCCC1` [48-19]: the equilibrium dissociation constant (Kd) is > 500 nM.
`O=C(NCC1CCC1)C1(OCc2cc(=O)n3nc(-c4ccccc4)nc3[nH]2)CCCCC1` [48-20]: the “FABP4 TdF Kd” value is recorded as “B (0.5 ≦ B < 0.001 μM)”.
Take `CC(C)(C)OC(=O)N1CCC(OCc2cc(=O)n3nc(-c4ccccc4)nc3[nH]2)(C(=O)NCC2CC2)CC1` [48-21]: the Kd was > 500 nM.
Regarding `CC(C)(C)OC(=O)N1CCC(OCc2cc(=O)n3nc(-c4ccccc4)nc3[nH]2)(C(=O)NCC2CCC2)CC1` [48-22], the Kd is > 500 nM.
Consider `CNC(=O)C1(OCc2cc(=O)n3nc(-c4ccccc4)nc3[nH]2)CCCCC1` [48-23], for which the equilibrium dissociation constant (Kd) was > 500 nM.
In the case of `COCCNC(=O)C1(OCc2cc(=O)n3nc(-c4ccccc4)nc3[nH]2)CCCCC1` [48-24], the “FABP4 TdF Kd” value was “B (0.5 ≦ B < 0.001 μM)”.
As for `CC1(C)CN(C(=O)C2(OCc3cc(=O)n4nc(-c5ccccc5)nc4[nH]3)CCCCC2)CCO1` [48-25], the “FABP4 TdF Kd” value is reported as “B (0.5 ≦ B < 0.001 μM)”.
As to `O=C(NCCC1CC1)C1(OCc2cc(=O)n3nc(-c4ccccc4)nc3[nH]2)CCCCC1` [48-26], the “FABP4 TdF Kd” value is recorded as “B (0.5 ≦ B < 0.001 μM)”.
On to `CN(C(=O)C1(OCc2cc(=O)n3nc(-c4ccccc4)nc3[nH]2)CCCCC1)C1CCCCC1` [48-27], for which the “FABP4 TdF Kd” value is “B (0.5 ≦ B < 0.001 μM)”.
As for `CN(C(=O)C1(OCc2cc(=O)n3nc(-c4ccccc4)nc3[nH]2)CCCCC1)C1CC1` [48-28], the “FABP4 TdF Kd” value is “B (0.5 ≦ B < 0.001 μM)”.
`CN(CCc1cccc(Cl)c1)C(=O)C1(OCc2cc(=O)n3nc(-c4ccccc4)nc3[nH]2)CCCCC1` [48-29]: the “FABP4 TdF Kd” value was “B (0.5 ≦ B < 0.001 μM)”.
As for `CN(C)C(=O)C1(OCc2cc(=O)n3nc(-c4ccccc4)nc3[nH]2)CCCCC1` [48-30], the Kd was > 500 nM.
As for `CN(Cc1cccc(Cl)c1)C(=O)C1(OCc2cc(=O)n3nc(-c4ccccc4)nc3[nH]2)CCCCC1` [48-31], the “FABP4 TdF Kd” value is “B (0.5 ≦ B < 0.001 μM)”.
As for `Cn1nccc1NC(=O)C1(OCc2cc(=O)n3nc(-c4ccccc4)nc3[nH]2)CCCCC1` [48-32], the “FABP4 TdF Kd” value is on record as “B (0.5 ≦ B < 0.001 μM)”.
Regarding `Cn1ccc(NC(=O)C2(OCc3cc(=O)n4nc(-c5ccccc5)nc4[nH]3)CCCCC2)n1` [48-33], the “FABP4 TdF Kd” value is given as “B (0.5 ≦ B < 0.001 μM)”.
On to `O=C(NCC1(c2ccccc2Cl)CCC1)C1(OCc2cc(=O)n3nc(-c4ccccc4)nc3[nH]2)CCCCC1` [48-34], for which the “FABP4 TdF Kd” value is “B (0.5 ≦ B < 0.001 μM)”.
With `Cc1cc(NC(=O)C2(OCc3cc(=O)n4nc(-c5ccccc5)nc4[nH]3)CCCCC2)n(C)n1` [48-35], the Kd was > 500 nM.
For `O=C(NC1(CO)CC1)C1(OCc2cc(=O)n3nc(-c4ccccc4)nc3[nH]2)CCCCC1` [48-36], the “FABP4 TdF Kd” value is “B (0.5 ≦ B < 0.001 μM)”.
On to `CN(CCc1ccccc1)C(=O)C1(OCc2cc(=O)n3nc(-c4ccccc4)nc3[nH]2)CCCCC1` [48-37], for which the “FABP4 TdF Kd” value was “B (0.5 ≦ B < 0.001 μM)”.
Consider `CCN(C(=O)C1(OCc2cc(=O)n3nc(-c4ccccc4)nc3[nH]2)CCCCC1)C1CCCCC1` [48-38], for which the “FABP4 TdF Kd” value is “B (0.5 ≦ B < 0.001 μM)”.
Take `Cn1nc(C2CC2)cc1NC(=O)C1(OCc2cc(=O)n3nc(-c4ccccc4)nc3[nH]2)CCCCC1` [48-39]: the “FABP4 TdF Kd” value was “B (0.5 ≦ B < 0.001 μM)”.
`O=C(NC1CCCCC1)C1(OCc2cc(=O)n3nc(-c4ccccc4)nc3[nH]2)CCCCC1` [48-40]: the “FABP4 TdF Kd” value is “B (0.5 ≦ B < 0.001 μM)”.
For `C#CC1(NC(=O)C2(OCc3cc(=O)n4nc(-c5ccccc5)nc4[nH]3)CCCCC2)CCCCC1` [48-41], the “FABP4 TdF Kd” value was “B (0.5 ≦ B < 0.001 μM)”.
With `CN(CC1(c2ccccc2Cl)CC1)C(=O)C1(OCc2cc(=O)n3nc(-c4ccccc4)nc3[nH]2)CCCCC1` [48-42], the “FABP4 TdF Kd” value was “B (0.5 ≦ B < 0.001 μM)”.
`CC1(NC(=O)C2(OCc3cc(=O)n4nc(-c5ccccc5)nc4[nH]3)CCCCC2)COC1` [48-43]: the Kd was > 500 nM.
`O=C(O)C1(NC(=O)C2(OCc3cc(=O)n4nc(-c5ccccc5)nc4[nH]3)CCCCC2)CCCCC1` [48-44]: the “FABP4 TdF Kd” value was “B (0.5 ≦ B < 0.001 μM)”.
Same read-out and setting: the same measure for `O=C(NCCc1cccc(Cl)c1)C1(OCc2cc(=O)n3nc(-c4ccccc4)nc3[nH]2)CCCCC1` [48-45]: “B (0.5 ≦ B < 0.001 μM)”.
Regarding `CN(CC1(CO)CCC1)C(=O)C1(OCc2cc(=O)n3nc(-c4ccccc4)nc3[nH]2)CCCCC1` [48-46], the “FABP4 TdF Kd” value was “B (0.5 ≦ B < 0.001 μM)”.
For `CNCC1(COC(=O)C2(OCc3cc(=O)n4nc(-c5ccccc5)nc4[nH]3)CCCCC2)CCC1` [48-47], the Kd is > 500 nM.
As to `O=C(NC1(c2ccccc2F)CC1)C1(OCc2cc(=O)n3nc(-c4ccccc4)nc3[nH]2)CCCCC1` [48-48], the “FABP4 TdF Kd” value is “B (0.5 ≦ B < 0.001 μM)”.
`O=C(NCc1ccccc1C(F)(F)F)C1(OCc2cc(=O)n3nc(-c4ccccc4)nc3[nH]2)CCCCC1` [48-49]: the “FABP4 TdF Kd” value was “B (0.5 ≦ B < 0.001 μM)”.
In the case of `Cc1ccccc1C1(NC(=O)C2(OCc3cc(=O)n4nc(-c5ccccc5)nc4[nH]3)CCCCC2)CC1` [48-50], the “FABP4 TdF Kd” value is “B (0.5 ≦ B < 0.001 μM)”.
Consider `O=C(NC1(c2ccccc2)CC1)C1(OCc2cc(=O)n3nc(-c4ccccc4)nc3[nH]2)CCCCC1` [48-51], for which the “FABP4 TdF Kd” value is “B (0.5 ≦ B < 0.001 μM)”.
For `O=C(NCc1ccccc1)C1(OCc2cc(=O)n3nc(-c4ccccc4)nc3[nH]2)CCCCC1` [48-52], the “FABP4 TdF Kd” value is “B (0.5 ≦ B < 0.001 μM)”.
For `COC(=O)C1(NC(=O)C2(OCc3cc(=O)n4nc(-c5ccccc5)nc4[nH]3)CCCCC2)CCCCC1` [48-53], the “FABP4 TdF Kd” value is reported as “B (0.5 ≦ B < 0.001 μM)”.
Still for that read-out and setting: the result for `O=C(NCC1(CO)CC1)C1(OCc2cc(=O)n3nc(-c4ccccc4)nc3[nH]2)CCCCC1` [48-54] reads “B (0.5 ≦ B < 0.001 μM)”; that for `COCC1(CNC(=O)C2(OCc3cc(=O)n4nc(-c5ccccc5)nc4[nH]3)CCCCC2)CC1` [48-55], “B (0.5 ≦ B < 0.001 μM)”.
Take `O=C(NCC1(O)CCCCC1)C1(OCc2cc(=O)n3nc(-c4ccccc4)nc3[nH]2)CCCCC1` [48-56]: the “FABP4 TdF Kd” value is given as “B (0.5 ≦ B < 0.001 μM)”.
As to `COc1ccccc1C1(CNC(=O)C2(OCc3cc(=O)n4nc(-c5ccccc5)nc4[nH]3)CCCCC2)CCC1` [48-57], the “FABP4 TdF Kd” value is given as “B (0.5 ≦ B < 0.001 μM)”.
On the same count and under the same terms, the result for `CC(C)(CNC(=O)C1(OCc2cc(=O)n3nc(-c4ccccc4)nc3[nH]2)CCCCC1)N1CCOCC1` [48-58] reads “B (0.5 ≦ B < 0.001 μM)”; that for `O=C(NC1(CO)CCCC1)C1(OCc2cc(=O)n3nc(-c4ccccc4)nc3[nH]2)CCCCC1` [48-59], “B (0.5 ≦ B < 0.001 μM)”.
As to `O=C(NCC1(O)CCCC1)C1(OCc2cc(=O)n3nc(-c4ccccc4)nc3[nH]2)CCCCC1` [48-60], the “FABP4 TdF Kd” value is listed as “B (0.5 ≦ B < 0.001 μM)”.
For `O=C(NCC1(O)CCOCC1)C1(OCc2cc(=O)n3nc(-c4ccccc4)nc3[nH]2)CCCCC1` [48-61], the “FABP4 TdF Kd” value is recorded as “B (0.5 ≦ B < 0.001 μM)”.
On the same count and under the same terms, the result for `O=C(NCC1(CO)CCOCC1)C1(OCc2cc(=O)n3nc(-c4ccccc4)nc3[nH]2)CCCCC1` [48-62] reads “B (0.5 ≦ B < 0.001 μM)”; that for `O=C(NC1CCc2c(Cl)cccc21)C1(OCc2cc(=O)n3nc(-c4ccccc4)nc3[nH]2)CCCCC1` (stereo not shown) [48-63], “B (0.5 ≦ B < 0.001 μM)”.
`O=C(N1CCc2ccc(Cl)cc21)C1(OCc2cc(=O)n3nc(-c4ccccc4)nc3[nH]2)CCCCC1` [48-64]: the “FABP4 TdF Kd” value was “B (0.5 ≦ B < 0.001 μM)”.
For `O=C(NCC1(c2ccc(Cl)cc2)CCC1)C1(OCc2cc(=O)n3nc(-c4ccccc4)nc3[nH]2)CCCCC1` [48-65], the Kd was ≤ 1 nM.
Same read-out and setting: the result for `O=C(N1CCC[C@@H]1CO)C1(OCc2cc(=O)n3nc(-c4ccccc4)nc3[nH]2)CCCCC1` [48-66] reads > 500 nM.
With `O=C(NC1(CO)CCCCC1)C1(OCc2cc(=O)n3nc(-c4ccccc4)nc3[nH]2)CCCCC1` [48-67], the “FABP4 TdF Kd” value was “B (0.5 ≦ B < 0.001 μM)”.
For `NC1(COC(=O)C2(OCc3cc(=O)n4nc(-c5ccccc5)nc4[nH]3)CCCCC2)CCOCC1` [48-68], the equilibrium dissociation constant (Kd) was > 500 nM.
On to `O=C(NC1(CO)CCOCC1)C1(OCc2cc(=O)n3nc(-c4ccccc4)nc3[nH]2)CCCCC1` [48-69], for which the Kd is > 500 nM.
For the molecule `COc1cccc(C2(CNC(=O)C3(OCc4cc(=O)n5nc(-c6ccccc6)nc5[nH]4)CCCCC3)CC2)c1` [48-70], the “FABP4 TdF Kd” value is “B (0.5 ≦ B < 0.001 μM)”.
Turning to `COc1cccc(C2(NC(=O)C3(OCc4cc(=O)n5nc(-c6ccccc6)nc5[nH]4)CCCCC3)CC2)c1` [48-71], the “FABP4 TdF Kd” value is “B (0.5 ≦ B < 0.001 μM)”.
The same measure, in the same setting: the same measure for `O=C(NCC1(c2ccc(Cl)cc2)CC1)C1CCCCC1OCc1cc(=O)n2nc(-c3ccccc3)nc2[nH]1` (stereo not shown) [48-76]: “B (0.5 ≦ B < 0.001 μM)”; for `CN(CCC1CC1)C(=O)C1(OCc2cc(=O)n3nc(-c4ccccc4)nc3[nH]2)CCCCC1` [48-77]: “B (0.5 ≦ B < 0.001 μM)”.
Take `O=C(O)C1(OCc2cc(=O)n3nc(-c4ccccc4)nc3[nH]2)CCCC1` [48-78]: the Kd is > 500 nM.
For `O=C(Nc1c(Cl)cccc1OCc1cc(=O)n2nc(-c3ccccc3)nc2[nH]1)C1CCC1` [49-2], the “FABP4 TdF Kd” value was “B (0.5 ≦ B < 0.001 μM)”.
Take `O=C(Nc1c(Cl)cccc1OCc1cc(=O)n2nc(-c3ccccc3)nc2[nH]1)C1CC1` [49-3]: the “FABP4 TdF Kd” value is given as “B (0.5 ≦ B < 0.001 μM)”.
`O=C(Nc1c(Cl)cccc1OCc1cc(=O)n2nc(-c3ccccc3)nc2[nH]1)C1CCCC1` [49-4]: the “FABP4 TdF Kd” value was “B (0.5 ≦ B < 0.001 μM)”.
With `CC1(C(=O)Nc2c(Cl)cccc2OCc2cc(=O)n3nc(-c4ccccc4)nc3[nH]2)CC1` [49-5], the “FABP4 TdF Kd” value is on record as “B (0.5 ≦ B < 0.001 μM)”.
As for `O=C(CC1CC1)Nc1c(Cl)cccc1OCc1cc(=O)n2nc(-c3ccccc3)nc2[nH]1` [49-6], the “FABP4 TdF Kd” value is listed as “B (0.5 ≦ B < 0.001 μM)”.
